Experimental data: patent US20220119493A1, “IL-7R-ALPHA BINDING COMPOUNDS” (MEDIKINE, INC., priority 2020, published 2022)

Legend:
IL-7Rα subunit = target: T1, IL-7Rα subunit (Homo sapiens, UniProt P16871); experiment: Phage ELISA competition assay; details: read-out: IC50, binding to the unique binding site on the IL-7Rα subunit
T1 construct: Fc; purchased ACRObiosystems, Inc. ILB-H5258

IL-7Rα = target: T2, IL-7Rα (Homo sapiens, UniProt P16871); experiment: Competitive binding ELISA bn407:NA-HRP; details: bn407:NA-HRP 10 nMf; SEQ ID NOS: 520-534 with two glycines (-GG-) on the carboxyl terminus
T2 construct: Fc; purchased ACRObiosystems, Inc. ILB-H5258
T2 sequence (P16871 21-236): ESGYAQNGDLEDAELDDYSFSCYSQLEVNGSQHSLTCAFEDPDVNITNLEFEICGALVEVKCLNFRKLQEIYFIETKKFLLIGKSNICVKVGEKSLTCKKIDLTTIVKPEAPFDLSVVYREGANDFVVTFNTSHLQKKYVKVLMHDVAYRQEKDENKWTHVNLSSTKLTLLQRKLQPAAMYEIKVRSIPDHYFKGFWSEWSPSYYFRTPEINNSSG

CD4 and CD8 T-cells = experiment: Ki-67 proliferation assay in CD4 and CD8 T-cells; type: cell-based; details: human PBMCs, 3 days; hIL-7 comparator

T1 sequence (P16871 21-236): as above

| Molecule | IC50 (IL-7Rα subunit) [nM] | also measured |
| --- | --- | --- |
| CSCC[C@H](NC(=O)[C@@H](N)Cc1ccc(O)cc1)C(=O)N[C@@H](C)C(=O)N[C@H]1CSSC[C@@H](C(=O)N[C@@H](CCCNC(=N)N)C(=O)N[C@@H](CC(C)C)C(=O)N[C@@H](CO)C(=O)O)NC(=O)[C@H](CC(C)C)NC(=O)[C@H](CO)NC(=O)[C@H](CC(C)C)NC(=O)CNC(=O)[C@H](CO)NC(=O)[C@H](CO)NC1=O [compound 104] | < 10000 |  |
| CC(C)C[C@@H]1NC(=O)[C@H](CO)NC(=O)CNC(=O)[C@@H]2CCCN2C(=O)[C@H](CC(=O)O)NC(=O)[C@H](CC(C)C)NC(=O)[C@H]([C@@H](C)O)NC(=O)[C@@H](NC(=O)[C@H](Cc2c[nH]c3ccccc23)NC(=O)[C@@H]2CCCN2C(=O)[C@@H](NC(=O)CNC(=O)CN)C(C)C)CSSC[C@@H](C(=O)N[C@@H](C)C(=O)N[C@@H](Cc2c[nH]c3ccccc23)C(=O)N[C@@H](Cc2ccccc2)C(=O)O)NC(=O)[C@H](CCC(N)=O)NC1=O [compound 458] | < 10000 |  |
| CC[C@H](C)[C@H](NC(=O)[C@@H]1CSSC[C@H](NC(=O)[C@@H](N)CCC(N)=O)C(=O)N[C@@H](C(C)C)C(=O)N[C@@H](Cc2c[nH]cn2)C(=O)N[C@@H](Cc2c[nH]c3ccccc23)C(=O)N[C@@H](CC(=O)O)C(=O)N[C@@H](CC(C)C)C(=O)N[C@@H](CC(=O)O)C(=O)N[C@@H]([C@@H](C)O)C(=O)N[C@@H](CC(C)C)C(=O)N[C@@H](Cc2ccccc2)C(=O)NCC(=O)N1)C(=O)N[C@@H](CCCNC(=N)N)C(=O)N[C@@H](CCC(=O)O)C(=O)N[C@@H](CCC(N)=O)C(=O)N[C@@H](CC(C)C)C(=O)N[C@@H](CCC(=O)O)C(=O)N[C@@H](CC(C)C)C(=O)O [compound 146] | < 10000 |  |
| CC[C@H](C)[C@H](NC(=O)[C@H](CCCNC(=N)N)NC(=O)[C@H](Cc1c[nH]cn1)NC(=O)[C@@H](N)C(C)C)C(=O)N1CCC[C@H]1C(=O)N[C@@H](Cc1c[nH]c2ccccc12)C(=O)N[C@H]1CSSC[C@@H](C(=O)N[C@@H](C)C(=O)N[C@@H](Cc2c[nH]c3ccccc23)C(=O)N[C@@H](CC(C)C)C(=O)N[C@@H](CCCNC(=N)N)C(=O)N[C@@H](CCC(N)=O)C(=O)N[C@@H](CCSC)C(=O)NCC(=O)NCC(=O)O)NC(=O)[C@H](CCC(N)=O)NC(=O)[C@H](CC(C)C)NC(=O)CNC(=O)CNC(=O)[C@@H]2CCCN2C(=O)[C@H](CC(=O)O)NC(=O)[C@H](CC(C)C)NC(=O)[C@H]([C@@H](C)O)NC1=O [SEQ ID NO: 554, VHRIPWCTLDPGGLQCAWLRQMGG] |  | IC50 (IL-7Rα): 382 nM |
| hIL-7: human interleukin-7, the natural cytokine, comparator in the functional assays |  | EC50 (CD4 and CD8 T-cells): ~1 nM |
